Here are results for two compounds from US20250034161A1, “SPIROCYCLIC COMPOUND AS KRAS-G12C INHIBITOR” (Shanghai Euregen Biopharma Co., Ltd., priority 2020, published 2025).

Some results are limits rather than exact numbers.

A short description of data set [1]: Pharmacokinetic properties in rats (IV and PO, LC-MS/MS). It is filed as in vivo. The settings on record: for F: SD rats; for AUC(0-inf) / Cmax / clearance / half-life / Vd: male, Sprague-Dawley (SD), rat, plasma; for Vd: read-out: Vz. How it is done:
• 1. Test purpose: to determine the pharmacokinetic characteristics of some of the example compound of the present invention in SD rats after single intravenous injection(IV) and oral administration(PO) by LC-MS/MS method. • 2. […] Animal production license number (SCXK (Shanghai) 2018-0006). • 3. Test method:
Preparation of 0.5% methyl cellulose: 5 g of methyl cellulose were weighed and dissolved in 1000 mL of purified water.
Preparation of oral formulation: A required amount of test compound was weighed and dissolved in 0.5% methyl cellulose solution to obtain a suspension or solution of 0.5 mg/mL.
Preparation of intravenous injection formulation: A required amount of test compound was weighed, and dissolved in 0.5 mL of dimethyl sulfoxide to prepare a solution of 4 mg/mL. 0.25 mL of the above solution was added into 0.5 mL of polyethylene glycol 15 hydroxystearate (solutol) and 4.25 mL of normal saline to obtain a solution of 0.2 mg/mL.
The dosage and volume administered were shown in the table below Feeding, 4 hours after administration
Sample Collection: blood is collected through jugular vein or other suitable vein, and 0.2 mL of blood was collected at each time point. Samples were placed into tubes containing ethylenediaminetetraacetic acid dipotassium salt and kept on ice before centrifugation. Within 1 hour after blood collection, the blood samples were centrifuged at 2-8° C. and 6800 g for 6 minutes and stored at −80° C. The time point for blood collection was 0.083, 0.25, 0.5, 1, 2, 4, 8 and 24 hours after intravenous administration, and 0.25, 0.5, 1, 2, 4, 6, 8 and 24 hours after oral administration.

The nature of data set [2]: Brain tissue distribution test. It is filed as in vivo. The settings on record: SD rats, PO 20 mg/kg. How it is done: 5 g of methyl cellulose was weighed and dissolved in 1000 mL of purified water to obtain 0.5% methyl cellulose. A required amount of the test compound was weighed and dissolved in 0.5% methylcellulose solution to obtain a suspension of 2 mg/mL.
Administration: SD rats were orally administered (PO) after overnight fasting. Feeding 4 hours after administration.
Sample Collection: 0.5 mL of blood was collected at each time point via the jugular vein. Samples were placed into tubes containing ethylenediamine tetraacetic acid dipotassium salt (K2EDTA) and kept on ice before centrifugation. Within 1 hour after blood collection, blood samples were centrifuged at 2-8° C. and 6800 g for 6 minutes and stored at −80° C. After the rats were euthanized by carbon dioxide inhalation, the brains of the rats were collected, quickly frozen on dry ice, and stored at −80° C. before bioanalysis. The time points for blood collection were 0.5 and 2 hours after oral administration.

The target in data set [3] is CYP 2C19 (Homo sapiens, UniProt P33261). The data set is described as follows: CYP inhibition test, human liver microsomes, CYP2C19. The procedure: (§1) • 1. Test purpose: to evaluate the inhibitory ability of some of the example compounds of the present invention against CYP1A2, 2B6, 2C8, 2C9, 2C19, 2D6 and 3A4 via human liver microsomes. • 2. […] Test method:
(§2) • 1. K/Mg buffer: the components were 0.1 mol/L potassium phosphate and 5 mmol/L magnesium chloride with pH 7.4±0.1, preheated. • 2. Solution of the test compound: the test compound was dissolved in dimethyl sulfoxide to prepare a stock solution of 10 mmol/L. 8 μL of 10 mmol/L stock solution was transferred to a 96-well plate containing 12 μL of acetonitrile as the highest concentration point, at 3-fold dilution, for 8 concentrations. • 3. NADPH solution: 66.7 mg of NADPH was dissolved in 10 mL of 0.1 mol/L K/Mg buffer to obtain 8 mmol/L NADPH solution with pH 7.4. • 4. Human liver microsomal stock solution: human liver microsomes were dissolved in 0.1 mol/L K/Mg buffer to obtain 20 mg/mL stock solution. • 5. Human liver microsomal working solution: 10 μL of 20 mg/mL human liver microsomal stock solution was taken and added into 990 μL of 0.1 mol/L K/Mg buffer to prepare 0.2 mg/mL human liver microsomal solution. • 6. […]

The target of data set [4] is CYP 2C9 (Homo sapiens, UniProt P11712). The data set is described as follows: CYP inhibition test, human liver microsomes, CYP2C9. The procedure:
as §1, §2

Sequence of CYP 2C9 (P11712 whole entry): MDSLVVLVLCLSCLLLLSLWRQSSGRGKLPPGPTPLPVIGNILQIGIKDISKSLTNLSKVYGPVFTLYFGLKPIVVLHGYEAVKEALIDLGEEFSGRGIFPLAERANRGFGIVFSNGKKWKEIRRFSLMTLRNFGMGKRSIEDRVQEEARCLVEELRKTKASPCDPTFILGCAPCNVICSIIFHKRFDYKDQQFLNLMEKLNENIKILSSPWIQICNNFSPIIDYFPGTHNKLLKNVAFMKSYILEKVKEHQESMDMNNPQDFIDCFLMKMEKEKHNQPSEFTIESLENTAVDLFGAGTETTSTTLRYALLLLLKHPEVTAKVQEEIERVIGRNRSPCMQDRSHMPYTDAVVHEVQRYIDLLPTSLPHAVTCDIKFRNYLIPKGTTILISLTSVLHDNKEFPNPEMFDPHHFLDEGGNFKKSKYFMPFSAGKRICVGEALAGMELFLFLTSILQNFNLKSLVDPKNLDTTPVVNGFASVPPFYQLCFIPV
Sequence of CYP 2C19 (P33261 whole entry): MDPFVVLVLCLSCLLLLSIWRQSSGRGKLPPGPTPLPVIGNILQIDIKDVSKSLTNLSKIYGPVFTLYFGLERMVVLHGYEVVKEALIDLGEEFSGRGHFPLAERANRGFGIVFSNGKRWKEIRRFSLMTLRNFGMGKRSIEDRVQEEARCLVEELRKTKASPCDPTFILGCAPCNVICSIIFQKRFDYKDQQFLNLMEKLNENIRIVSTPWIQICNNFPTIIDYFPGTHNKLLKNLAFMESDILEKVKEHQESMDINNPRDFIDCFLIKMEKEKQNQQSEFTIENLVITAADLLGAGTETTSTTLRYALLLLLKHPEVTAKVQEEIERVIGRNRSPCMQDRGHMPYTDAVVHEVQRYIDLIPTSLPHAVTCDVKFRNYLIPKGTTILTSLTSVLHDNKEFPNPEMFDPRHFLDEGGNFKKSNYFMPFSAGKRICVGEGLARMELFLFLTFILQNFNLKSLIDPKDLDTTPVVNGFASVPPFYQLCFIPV

Broadly, the AUC(0-inf) is the area under the concentration-time curve extrapolated to infinity. Low readings indicate low exposure, high ones high exposure. For orientation: Cmax means the peak of the concentration-time curve. For orientation: half-life means how long it takes for the measured level to halve. As usually defined, the IC50 is the point on the concentration scale where inhibition reaches its midpoint. The low end stands for higher potency, the high end for lower potency. For `C=CC(=O)N1CCN(c2nc(=O)n(-c3c(C)ccnc3C(C)C)c3nc(-c4c(O)cccc4F)c(F)cc23)[C@@H](C)C1` [AMG510], in data set [1] (oral gavage, 5 mg/kg), the F turned out to be 35.41%, the AUC(0-inf) was 0.584 µg·h/mL, the Cmax is 1.26 µg/mL and the half-life is 1.81 h. Also, in data set [1] (intravenous injection, 1 mg/kg), the AUC(0-inf) was found to be 0.319 µg·h/mL, the concentration peaked (Cmax) at 0.762 µg/mL, the clearance was found to be 3.04 L/h/kg and the half-life was 0.36 h. The Vd in data set [1] (intravenous injection, 1 mg/kg) was 1.57 L/kg. Further, in data set [2] (0.5 hours), the “Brain concentration 0.5 hours after administration (ng/g)” value is given as “Below detection limit”. In data set [2] (2 hours), the “Brain concentration 2 hours after administration (ng/g)” value is recorded as “Below detection limit”. Further, the concentration for half-maximal inhibition (IC50) in data set [3] was greater than 10 µM. Moreover, the IC50 in data set [4] is greater than 10 µM.
In the case of `C=C(F)C(=O)N1CCN(c2nc(OC[C@@H]3CCCN3C)nc3c2CCN(c2cccc4cccc(Cl)c24)C3)C[C@@H]1CC#N` [MRTX849], in data set [1] (oral gavage, 5 mg/kg), the F worked out at 13.66%, the AUC(0-inf) was 0.238 µg·h/mL, the Cmax was 0.0233 µg/mL and the half-life was 2.8 h. In data set [1] (intravenous injection, 1 mg/kg), this compound showed an AUC(0-inf) of 0.348 µg·h/mL, a Cmax of 0.137 µg/mL, a clearance of 2.89 L/h/kg and a half-life of 3.16 h. For the same compound, the Vd in data set [1] (intravenous injection, 1 mg/kg) turned out to be 13.1 L/kg. In addition, in data set [2] (Sprague-Dawley (SD), rat, brain, 0.5 hours, read-out: Brain concentration 0.5 hours after administration), the concentration at 0.5 h stood at 8 ng/g. Besides, the concentration at 2 h in data set [2] (Sprague-Dawley (SD), rat, brain, 2 hours, read-out: Brain concentration 2 hours after administration) was 69.8 ng/g. Also, the IC50 in data set [3] was greater than 10 µM. For the same compound, in data set [4], the half-inhibitory concentration (IC50) was determined as 1.35 µM.
